What was measured:
[1] = test system: human red blood cells; assay: Hemolysis assay; settings: peptide concentration 256 µg/mL, 30 min, 37 °C
Experimental: A hemolysis assay was performed to determine the activity of latarcins against human red blood cells, allowing us to compare the results to those of previous experiments in which rabbit erythrocytes were used. The activity was determined for each latarcin as a function of increasing concentration, up to a maximum of 256 µg of peptides per mL. […] The percentage hemolysis of the other peptides was determined at the highest tested concentration of 256 µg/mL.
The influence of latarcins on human erythrocytes was determined by using a hemolysis assay modified from previously published methods. Blood was obtained from the blood bank of the local hospital in Karlsruhe and stabilized with citrate phosphate dextrose buffer. Erythrocyte suspension (5 mL) was taken up in Tris buffer (45 mL, 172 mM, pH 7.6) at room temperature, gently mixed, and centrifuged (1500 rpm, 10 min). The supernatant solution was removed, and Tris wash was repeated twice with 45 mL as above. The washed erythrocytes (1 mL) were suspended in 9 mL Tris buffer to make the stock cell suspension, which was then further diluted to 0.25% (v/v) at 37 °C before use. Peptide stock solutions were prepared with 1024 µg/mL in Tris buffer containing 10% DMSO, and serial dilutions were prepared in the range of 512 µg/mL to 2 µg/mL as described previously. For the positive control, Triton X-100 (200 µL of 0.2% v/v) was used, and as the negative control, Tris buffer (200 µL, 172 mM) was used. Erythrocyte stock cell suspension (200 µL) was added to each of the samples and incubated for 30 min at 37 °C with gentle shaking before determining the percentage of hemolysis as described previously.

[2] = test system: Bacillus subtilis subsp. spizizenii (DSM 347), Staphylococcus xylosus (DSM 20267), Escherichia coli (DSM 1116), Acinetobacter sp. (DSM 586); settings: for MIC: irrespective of the bacterial strain (all four strains), Müller-Hinton medium, 20 h at 37 °C, maximum tested 256 µg/mL; for MIC (relative antimicrobial activity): relative activity over two Gram-positive and two Gram-negative strains
Experimental: The effect of latarcins against four types of bacteria was determined using a minimum inhibitory concentration (MIC) assay on two Gram-positive strains (Bacillus subtilis subsp. spizizenii and Staphylococcus xylosus) and two Gram-negative strains (Escherichia coli and Acinetobacter sp.). Although the antimicrobial activity of latarcins is well documented, these experiments served to ensure that all studies were performed on molecules that show the expected antimicrobial activity.
The minimum inhibitory concentration (MIC) was determined as previously reported. For each latarcin, MIC was determined against two Gram-positive strains, namely Bacillus subtilis subsp. spizizenii (DSM 347) and Staphylococcus xylosus (DSM 20267), and two Gram-negative strains: Escherichia coli (DSM 1116) and Acinetobacter sp. (DSM 586). Bacterial cultures were grown in Müller-Hinton medium (MHM) as described previously, and peptides were dissolved in sterile water containing 10% DMSO. The stock solution of peptides with 1024 µg/mL was prepared such that serial dilutions of peptides (from 256 µg/mL to 2 µg/mL) in MHM were prepared in 96-well plates with the penultimate column without peptide to act as positive control (no peptide) and the final column as negative control (no bacteria). Bacterial stock suspension was made with an OD of 0.2 units at 550 nm. This stock solution was further diluted (1:1000 for Gram-negative bacteria and 1:100 for Gram-positive bacteria), and subsequently, 50 µL of the resulting bacterial suspension was added to the wells except the final well to give a final concentration of 10^6 colony-forming units per mL. Afterwards, the 96-well plates were incubated at 37 °C for 20 h, and cellular respiration was detected by adding 20 µL of resazurin solution (200 µg/mL) for an additional 2 h at the same temperature.

[3] = Circular dichroism spectroscopy (secondary structure); type: physicochemical; settings: for % Helix (CD): CD in DMPC/DMPG (7/3) SUVs, P/L = 1:50, 10 mM phosphate buffer pH 7.0, 30 °C, peptide 29.3 μM, deconvolution with CDSSTR, CONTIN-LL, SELCON-3
Description: Next, we compared the secondary structure of the full set of latarcins in the presence of lipid membranes, for which there are no complete data available yet.
The CD line shapes (Figure 2) were deconvoluted to estimate the secondary structure contributions (Supplementary Table S1) using the CDSSTR, CONTIN-LL, and SELCON-3 algorithms provided on the DICHROWEB online server as described previously. […] In peptides containing a high proportion of aromatic residues, such shifts of the long-wavelength band are well documented.
Small unilamellar vesicles (SUVs) for the CD measurements were prepared as follows. Weighed amounts of the lipid powders (DMPC, DMPG) were dissolved in chloroform/methanol 1/1 (v/v) to obtain 5 mg/mL stock solutions. For obtaining mixed DMPC/DMPG liposomes (7/3 molar ratio), the appropriate aliquots of these stock solutions were pipetted in a glass vial and thoroughly vortexed. The organic solvents were removed under a gentle stream of nitrogen gas, followed by 3 h of vacuum pumping in an exsiccator at a reduced pressure of 3-4 mbars to remove solvent residuals from the lipid film that had formed in the vial. The lipid film was dispersed by the addition of 10 mM phosphate buffer (PB) pH 7.0 and homogenized by vigorously vortexing for 10 × 1 min and 10 freeze–thaw cycles. SUVs were formed by sonication of the obtained multilamellar vesicles for 16 min in a strong ultrasonic bath (UTR 200, Hielscher, Germany). The temperature of the water in the ultrasonic bath was adjusted to 35 °C by circulating it through a thermostat to avoid overheating the samples. A weighed amount of the corresponding peptide was dissolved in water resulting in stock solutions with a peptide concentration of 0.5 mg/mL. For the final CD samples, each peptide stock solution was diluted to 29.3 μM and the corresponding lipid dispersion to 1.47 mM in 10 mM PB, resulting in a peptide-to-lipid (P/L) ratio of 1/50.
[…] The samples were measured in a 1-millimeter path length quartz glass cell (Suprasil, Hellma Müllheim, Germany) between 260 and 185 nm at 0.5 nm intervals. Spectra of the liposome samples were recorded at 30 °C, i.e., well above the phase transition temperature of the lipids, using a water-thermostated rectangular cell holder. Three repeat scans at a scan rate of 10 nm min^−1, 8 s response time, and 1 nm bandwidth were averaged for each sample, and the baseline spectrum of the respective peptide-free sample was subtracted from the sample spectrum. CD spectra were smoothened by a Savitzky-Golay filter (convolution width of 15 data points), which is implemented in the Jasco Spectra Analysis software.

[4] = Oriented circular dichroism (helix alignment in membrane); type: physicochemical; settings: DMPC/DMPG (7/3), P/L = 1:100, oriented hydrated bilayers, 30 °C
Description: This is the same lipid composition and peptide-to-lipid ratio as was used in conventional CD above (see Figure 2), but in contrast to the vesicular samples containing excess water, the oriented membranes for OCD are just about saturated with water.
The sign and intensity of the 208 nm band provide a characteristic signature of the helix tilt angle in the membrane [19]. For a helical peptide that lies flat on the bilayer surface, this band is the most intense.
To prepare oriented CD (OCD) samples, latarcins depending on their solubility were dissolved either in pure MeOH or CHCl3/MeOH 1/1 (v/v) and thoroughly mixed with appropriate aliquots of DMPC/DMPG solutions (7/3 molar ratio) in the same solvent. Each co-dissolved mixture with a peptide-to-lipid molar ratio of 1/100 was deposited on a quartz glass plate using a gas-tight syringe. To achieve a spot size of 12.5 mm on the 20 mm diameter plates (Suprasil QS, Hellma Optik GmbH, Jena, Germany), a volume of ~55–60 µL was used. The organic solvents were evaporated in a gentle stream of air until the sample appeared dry. The amounts of deposited lipid and peptide on the plate were always 0.29 μmole and 2.9 nmole, respectively. The peptide-lipid-film was further dried under reduced pressure for at least 3 h. Afterwards, each plate with the dried sample was fixed and sealed by a polymer O-ring in a cylindrical sample holder. The plate with the sample and a second window plate without the sample formed a compartment for controlled hydration. The holder was assembled in a custom-built hydration cell. In the inner compartment of the sample holder, the peptide-lipid film was hydrated for about 15 h at 30 °C and 97% relative humidity via the gas phase by a saturated K2SO4 solution contained in an adjacent cavity of the hydration cell. During hydration, the lipids spontaneously align as lipid bilayers that are macroscopically oriented perpendicular to the glass surface. For the measurement, the holder was transferred to an OCD sample cell that had been developed and built in-house [20]. It is computer-controlled and can be integrated into a Jasco spectropolarimeter as an accessory. The optical path runs along the cylindrical axis of the cell, i.e., normal to the quartz glass plate surface carrying the oriented lipid film. To reduce possible spectral artifacts caused by linear dichroism (LD) or linear birefringence (LB) due to imperfections in the sample, strain in the quartz glass or imperfect alignment of the windows, the OCD spectra were recorded in steps of 45° by rotation of the cell around the beam axis [19, 20]. At each angle, two scans were recorded from 260–185 nm as an average, using a scan rate of 20 nm min^−1, 4 s response time, and 1 nm bandwidth.

Question: Which “% Hemolysis” value [1] does the source give for H-GLKDKFKSMGEKLKQYIQTWKAKF-NH2 [Ltc4a] here?
Answer: The value was 12%.

Question: What about the MIC [2] of the same substance?
Answer: The MIC was 8 to 32 µg/mL.

Question: And the “MIC (relative antimicrobial activity)” value [2]?
Answer: The value was “++”.

Question: And the “% Helix (CD)” value [3]?
Answer: The value was 94%.

Question: For H-SWKSMAKKLKEYMEKLKQRA-NH2 [Ltc3a], which “% Hemolysis” value [1] is on record?
Answer: Its value is 16%.

Question: And the MIC [2]?
Answer: Its MIC is 8 to 32 µg/mL.

Question: And the “MIC (relative antimicrobial activity)” value [2]?
Answer: Its value is “++”.

Question: What about the “OCD: orientational state of the helix” value [4] of the same substance?
Answer: The value was “Slight tilt”.

Question: What about the “helical fold (CD) in buffer without lipids” value ([3]; 10 mM phosphate buffer pH 7, no lipids, 30 °C) of the same substance?
Answer: The value was “ca. 30%”.

Question: What about the “% Helix (CD)” value [3] of the same substance?
Answer: Its value is 87%.

Question: For “G E TF D K L K E K L K TFYQ K LV E K A ED L K G D L K A K LS-acid [Ltc7]”, which “% Hemolysis” value [1] is on record?
Answer: The value was 2%.

Question: And the MIC [2]?
Answer: Its MIC is > 256 µg/mL.

Question: What about the “MIC (relative antimicrobial activity)” value [2] of the same substance?
Answer: Its value is “−”.

Question: What about the “OCD: orientational state of the helix” value [4] of the same substance?
Answer: Its value is “Surface”.

Question: And the “% Helix (CD)” value [3]?
Answer: Its value is 89%.

Question: With “H-GFFGKMKEYFKKFGASFKRRFANLKKRL-NH2 [Ltc5]” as the substance, how does the “% Hemolysis” value [1] read?
Answer: Its value is 27%.

Question: What about the MIC [2] of the same substance?
Answer: Its MIC is “below 4 µg/mL”.

Question: And the “MIC (relative antimicrobial activity)” value [2]?
Answer: Its value is “+++”.

Question: What about the “OCD: orientational state of the helix” value [4] of the same substance?
Answer: The value was “Surface”.

Question: What about the “% Helix (CD)” value [3] of the same substance?
Answer: Its value is 85%.

Question: What does the source list for “H-QAFQTFKPDWNKIRYDAMKMQTSLGQMKKRFNL-OH [Ltc6a]”?
Answer: % Hemolysis [1]: 3%; MIC (relative antimicrobial activity) [2]: +; OCD: orientational state of the helix [4]: Aggregated; % Helix (CD) [3]: 65%

— publication PMC8470881, “Membrane Interactions of Latarcins: Antimicrobial Peptides from Spider Venom” (International Journal of Molecular Sciences, 2021)
